Results from ChEMBL document CHEMBL1201862, “PubChem BioAssay data set” (2004).
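Tested at 5 concentrations; 48 h exposure; 96-well plates; endpoints linearly interpolated, else capped at highest concentration. GI50: concentration for 50% inhibition of growth.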 Active and inactive are the calls of the source. Cut-off read from the data, not from the text of the source: active = GI50 up to about 1.1 µM and inactive = higher.

How the values were obtained:
Experiment in all cases: NCI anticancer screen, dose series, 48 h
786-0 = test system: 786-0
A498 = test system: A498
A549 = test system: A549
ACHN = test system: ACHN
BT-549 = test system: BT-549
CAKI-1 = test system: CAKI-1
CCRF-CEM = test system: CCRF-CEM
COLO 205 = test system: COLO 205
DU-145 = test system: DU-145
EKVX = test system: EKVX
HCC 2998 = test system: HCC 2998
HCT-116 = test system: HCT-116
HCT-15 = test system: HCT-15
HL-60 = test system: HL-60
HOP-92 = test system: HOP-92
HT-29 = test system: HT-29
Hs-578T = test system: Hs-578T
IGROV-1 = test system: IGROV-1
K562 = test system: K562
KM12 = test system: KM12
LOX IMVI = test system: LOX IMVI
M14 = test system: M14
MCF7 = test system: MCF7
MDA-MB-435 = test system: MDA-MB-435
MDA-N = test system: MDA-N
MOLT-4 = test system: MOLT-4
Malme-3M = test system: Malme-3M
NCI-H23 = test system: NCI-H23
NCI-H460 = test system: NCI-H460
NCI-H522 = test system: NCI-H522
NCI/ADR-RES = test system: NCI/ADR-RES
OVCAR-3 = test system: OVCAR-3
OVCAR-4 = test system: OVCAR-4
OVCAR-5 = test system: OVCAR-5
OVCAR-8 = test system: OVCAR-8
PC-3 = test system: PC-3
RPMI-8226 = test system: RPMI-8226
RXF 393 = test system: RXF 393
SF-268 = test system: SF-268
SF-295 = test system: SF-295
SF-539 = test system: SF-539
SK-MEL-28 = test system: SK-MEL-28
SK-MEL-2 = test system: SK-MEL-2
SK-MEL-5 = test system: SK-MEL-5
SN12C = test system: SN12C
SNB-19 = test system: SNB-19
SNB-75 = test system: SNB-75
SR = test system: SR
SW-620 = test system: SW-620
T47D = test system: T47D
UACC-257 = test system: UACC-257
UACC-62 = test system: UACC-62
UO-31 = test system: UO-31
HOP-62 = test system: HOP-62
SK-OV-3 = test system: SK-OV-3
U-251 = test system: U-251
NCI-H226 = test system: NCI-H226
TK-10 = test system: TK-10

CCC(=O)Nc1cccc(NC(=O)c2c(Cl)c(Cl)c(Cl)c(Cl)c2-c2nc3ccccc3[nH]2)c1
GI50 (786-0): 84.9 µM (inactive)
GI50 (A498): > 100 µM (inactive)
GI50 (A549): 0.0851 µM (active)
GI50 (ACHN): 80.7 µM (inactive)
GI50 (BT-549): 87.3 µM (inactive)
GI50 (CAKI-1): 82.4 µM (inactive)
GI50 (CCRF-CEM): 7.45 µM (inactive)
GI50 (COLO 205): 53.1 µM (inactive)
GI50 (DU-145): > 100 µM (inactive)
GI50 (EKVX): 52.8 µM (inactive)
GI50 (HCC 2998): 49.7 µM (inactive)
GI50 (HCT-116): 7.82 µM (inactive)
GI50 (HCT-15): 60.7 µM
GI50 (HL-60): 43 µM (inactive)
GI50 (HOP-92): 5.36 µM (inactive)
GI50 (HT-29): 66.2 µM (inactive)
GI50 (Hs-578T): > 100 µM (inactive)
GI50 (IGROV-1): 14.2 µM (inactive)
GI50 (K562): 25.4 µM (inactive)
GI50 (KM12): 0.0968 µM (active)
GI50 (LOX IMVI): 77.4 µM (inactive)
GI50 (M14): 29 µM (inactive)
GI50 (MCF7): 12.7 µM (inactive)
GI50 (MDA-MB-435): 32.4 µM (inactive)
GI50 (MDA-N): 22 µM (inactive)
GI50 (MOLT-4): 22.8 µM (inactive)
GI50 (Malme-3M): > 100 µM (inactive)
GI50 (NCI-H23): > 100 µM (inactive)
GI50 (NCI-H460): 37.8 µM (inactive)
GI50 (NCI-H522): 56.2 µM (inactive)
GI50 (NCI/ADR-RES): > 100 µM (inactive)
GI50 (OVCAR-3): > 100 µM (inactive)
GI50 (OVCAR-4): 71.6 µM (inactive)
GI50 (OVCAR-5): > 100 µM (inactive)
GI50 (OVCAR-8): > 100 µM (inactive)
GI50 (PC-3): 44.8 µM (inactive)
GI50 (RPMI-8226): 8.02 µM (inactive)
GI50 (RXF 393): 21.6 µM (inactive)
GI50 (SF-268): 79.4 µM (inactive)
GI50 (SF-295): 0.0417 µM (active)
GI50 (SF-539): > 100 µM (inactive)
GI50 (SK-MEL-28): > 100 µM (inactive)
GI50 (SK-MEL-2): > 100 µM (inactive)
GI50 (SK-MEL-5): > 100 µM (inactive)
GI50 (SN12C): > 100 µM (inactive)
GI50 (SNB-19): 1.03 µM (active)
GI50 (SNB-75): 3.94 µM (inactive)
GI50 (SR): 17.6 µM (inactive)
GI50 (SW-620): > 100 µM (inactive)
GI50 (T47D): 7.82 µM (inactive)
GI50 (UACC-257): 59 µM (inactive)
GI50 (UACC-62): 5.21 µM (inactive)
GI50 (UO-31): 21.7 µM (inactive)

CN(C)C(=O)Oc1ccc(C(=S)Nc2ccccc2)cc1
GI50 (786-0): > 100 µM (inactive)
GI50 (A498): > 100 µM (inactive)
GI50 (A549): 66.2 µM (inactive)
GI50 (ACHN): > 100 µM (inactive)
GI50 (BT-549): 32 µM (inactive)
GI50 (CAKI-1): > 100 µM (inactive)
GI50 (CCRF-CEM): 26.6 µM (inactive)
GI50 (COLO 205): 65.2 µM (inactive)
GI50 (DU-145): > 100 µM (inactive)
GI50 (EKVX): 45.9 µM (inactive)
GI50 (HCC 2998): > 100 µM (inactive)
GI50 (HCT-116): > 100 µM (inactive)
GI50 (HCT-15): 97.5 µM
GI50 (HL-60): 21.6 µM (inactive)
GI50 (HOP-62): > 100 µM (inactive)
GI50 (HT-29): 51.2 µM (inactive)
GI50 (Hs-578T): > 100 µM (inactive)
GI50 (IGROV-1): 34 µM (inactive)
GI50 (K562): 24.8 µM (inactive)
GI50 (KM12): 49.7 µM (inactive)
GI50 (LOX IMVI): 60.1 µM (inactive)
GI50 (M14): 41.2 µM (inactive)
GI50 (MCF7): 76 µM (inactive)
GI50 (MDA-MB-435): 42.3 µM (inactive)
GI50 (MDA-N): 37.4 µM (inactive)
GI50 (MOLT-4): 18.3 µM (inactive)
GI50 (Malme-3M): 89.3 µM (inactive)
GI50 (NCI-H23): 28.6 µM (inactive)
GI50 (NCI-H460): 40.5 µM (inactive)
GI50 (NCI-H522): 64.4 µM (inactive)
GI50 (NCI/ADR-RES): 26.4 µM (inactive)
GI50 (OVCAR-3): 86.5 µM (inactive)
GI50 (OVCAR-4): 32.1 µM (inactive)
GI50 (OVCAR-5): > 100 µM (inactive)
GI50 (OVCAR-8): 25.6 µM (inactive)
GI50 (PC-3): 96.4 µM (inactive)
GI50 (RPMI-8226): 64.1 µM (inactive)
GI50 (SF-268): > 100 µM (inactive)
GI50 (SF-295): 87.7 µM (inactive)
GI50 (SF-539): > 100 µM (inactive)
GI50 (SK-MEL-28): 33.1 µM (inactive)
GI50 (SK-MEL-2): > 100 µM (inactive)
GI50 (SK-MEL-5): 24 µM (inactive)
GI50 (SK-OV-3): > 100 µM (inactive)
GI50 (SNB-19): > 100 µM (inactive)
GI50 (SR): 46.8 µM (inactive)
GI50 (SW-620): > 100 µM (inactive)
GI50 (T47D): 53.6 µM (inactive)
GI50 (U-251): > 100 µM (inactive)
GI50 (UACC-257): 34.8 µM (inactive)
GI50 (UACC-62): 35.9 µM (inactive)
GI50 (UO-31): 75.3 µM (inactive)

N#Cc1c(N2CCCC2)ncn(Cc2ccccc2)c1=O
GI50 (786-0): > 100 µM (inactive)
GI50 (A498): > 100 µM (inactive)
GI50 (A549): > 100 µM (inactive)
GI50 (ACHN): > 100 µM (inactive)
GI50 (BT-549): > 100 µM (inactive)
GI50 (CCRF-CEM): > 100 µM (inactive)
GI50 (COLO 205): > 100 µM (inactive)
GI50 (DU-145): > 100 µM (inactive)
GI50 (EKVX): > 100 µM (inactive)
GI50 (HCC 2998): > 100 µM (inactive)
GI50 (HCT-116): > 100 µM (inactive)
GI50 (HCT-15): > 100 µM
GI50 (HL-60): > 100 µM (inactive)
GI50 (HOP-62): > 100 µM (inactive)
GI50 (HOP-92): > 100 µM (inactive)
GI50 (HT-29): > 100 µM (inactive)
GI50 (Hs-578T): > 100 µM (inactive)
GI50 (IGROV-1): > 100 µM (inactive)
GI50 (K562): > 100 µM (inactive)
GI50 (KM12): > 100 µM (inactive)
GI50 (LOX IMVI): > 100 µM (inactive)
GI50 (M14): > 100 µM (inactive)
GI50 (MDA-MB-435): > 100 µM (inactive)
GI50 (MDA-N): > 100 µM (inactive)
GI50 (MOLT-4): > 100 µM (inactive)
GI50 (Malme-3M): > 100 µM (inactive)
GI50 (NCI-H226): > 100 µM (inactive)
GI50 (NCI-H460): > 100 µM (inactive)
GI50 (NCI-H522): > 100 µM (inactive)
GI50 (NCI/ADR-RES): > 100 µM (inactive)
GI50 (OVCAR-3): > 100 µM (inactive)
GI50 (OVCAR-4): > 100 µM (inactive)
GI50 (OVCAR-5): > 100 µM (inactive)
GI50 (OVCAR-8): > 100 µM (inactive)
GI50 (PC-3): > 100 µM (inactive)
GI50 (RPMI-8226): > 100 µM (inactive)
GI50 (RXF 393): > 100 µM (inactive)
GI50 (SF-268): > 100 µM (inactive)
GI50 (SF-295): > 100 µM (inactive)
GI50 (SF-539): > 100 µM (inactive)
GI50 (SK-MEL-28): > 100 µM (inactive)
GI50 (SK-MEL-2): > 100 µM (inactive)
GI50 (SK-MEL-5): > 100 µM (inactive)
GI50 (SK-OV-3): > 100 µM (inactive)
GI50 (SN12C): > 100 µM (inactive)
GI50 (SNB-19): > 100 µM (inactive)
GI50 (SNB-75): > 100 µM (inactive)
GI50 (SR): > 100 µM (inactive)
GI50 (SW-620): > 100 µM (inactive)
GI50 (T47D): > 100 µM (inactive)
GI50 (TK-10): > 100 µM (inactive)
GI50 (U-251): > 100 µM (inactive)
GI50 (UACC-257): > 100 µM (inactive)
GI50 (UACC-62): > 100 µM (inactive)
GI50 (UO-31): > 100 µM (inactive)
